# pIC50: −log10 of the molar value.
# Legend:
# Jurkat = assay: Antiproliferative activity against human Jurkat cells assessed as reduction in cell viability incubated for 72 hrs by CCK-8 assay; format: functional, cell-based
# [1] = Inhibition of hedgehog in […] cells; format: cell-based
# HCT-116 = assay: Cytotoxicity against human HCT-116 cells assessed as reduction in cell growth incubated for 72 hrs by CCK-8 assay; format: functional, cell-based; settings: HCT-116, 72 h
# RAW264.7 = assay: Anti-inflammatory activity in mouse RAW264.7 cells assessed as inhibition of LPS-induced NO production incubated for 24 hrs by Griess reagent based analysis; format: functional, cell-based; settings: RAW264.7, 24 h
structure (smiles),measurement,setting,value
CC1=C(O)C(=O)C=C2C1=CC=C1[C@@]2(C)CC[C@@]2(C)[C@@H]3C[C@](C)(C(=O)NCCOCCNc4cccc5c4C(=O)N(C4CCC(=O)NC4=O)C5=O)CC[C@]3(C)CC[C@@]12C (some centres undefined),pIC50,Jurkat,6.60
COCCOC(=O)C1=C(c2cccc(OCc3cn(CCCCCCOc4cccc5c4C(=O)N(C4CCC(=O)NC4=O)C5=O)nn3)c2)C2=C(CC(c3ccccc3OC)CC2=O)NC1C (centres undefined),pIC50,[1],5.21
CN1c2ccc(F)cc2C(=O)N2CCc3c([nH]c4ccc(OCCCNC(=O)CCCCCC#Cc5cccc6c5CN(C5CCC(=O)NC5=O)C6=O)cc34)C21 (centres undefined),pIC50,HCT-116,7.70
C=C1CCC2C(/C=C(\C)C(=O)[C@@]3(O)C[C@H](C)[C@H](O)C3[C@H]1OCc1cn(CCOCCOCCOCCNc3cccc4c3C(=O)N(C3CCC(=O)NC3=O)C4=O)nn1)C2(C)C (some centres undefined),pIC50,RAW264.7,5.08

# From ChEMBL document CHEMBL6120937, “PROTAC technology: From drug development to probe technology for target deconvolution” (Eur J Med Chem, 2024)
